For five molecules, CATDS results are on record in article PMC11062922 (Nature Chemical Biology, 2023).

One assay relates to ATR. Nature of the assay: Kinobeads competition binding: ATR. Further details: species or system human. To be noted: target ATR.
A further assay has as its system BMPR1A. The experiment in a line: Kinobeads competition binding: BMPR1A. Further details: species or system human. As to conditions: target BMPR1A.
Another assay deals with CDK12. Nature of the assay: Kinobeads competition binding: CDK12. Further details: species or system human. To be noted: target CDK12.
In another assay the target is T1, EPHA1 (Homo sapiens, UniProt P21709).
T1 construct: endogenous in cells
T1 sequence (P21709 26-976): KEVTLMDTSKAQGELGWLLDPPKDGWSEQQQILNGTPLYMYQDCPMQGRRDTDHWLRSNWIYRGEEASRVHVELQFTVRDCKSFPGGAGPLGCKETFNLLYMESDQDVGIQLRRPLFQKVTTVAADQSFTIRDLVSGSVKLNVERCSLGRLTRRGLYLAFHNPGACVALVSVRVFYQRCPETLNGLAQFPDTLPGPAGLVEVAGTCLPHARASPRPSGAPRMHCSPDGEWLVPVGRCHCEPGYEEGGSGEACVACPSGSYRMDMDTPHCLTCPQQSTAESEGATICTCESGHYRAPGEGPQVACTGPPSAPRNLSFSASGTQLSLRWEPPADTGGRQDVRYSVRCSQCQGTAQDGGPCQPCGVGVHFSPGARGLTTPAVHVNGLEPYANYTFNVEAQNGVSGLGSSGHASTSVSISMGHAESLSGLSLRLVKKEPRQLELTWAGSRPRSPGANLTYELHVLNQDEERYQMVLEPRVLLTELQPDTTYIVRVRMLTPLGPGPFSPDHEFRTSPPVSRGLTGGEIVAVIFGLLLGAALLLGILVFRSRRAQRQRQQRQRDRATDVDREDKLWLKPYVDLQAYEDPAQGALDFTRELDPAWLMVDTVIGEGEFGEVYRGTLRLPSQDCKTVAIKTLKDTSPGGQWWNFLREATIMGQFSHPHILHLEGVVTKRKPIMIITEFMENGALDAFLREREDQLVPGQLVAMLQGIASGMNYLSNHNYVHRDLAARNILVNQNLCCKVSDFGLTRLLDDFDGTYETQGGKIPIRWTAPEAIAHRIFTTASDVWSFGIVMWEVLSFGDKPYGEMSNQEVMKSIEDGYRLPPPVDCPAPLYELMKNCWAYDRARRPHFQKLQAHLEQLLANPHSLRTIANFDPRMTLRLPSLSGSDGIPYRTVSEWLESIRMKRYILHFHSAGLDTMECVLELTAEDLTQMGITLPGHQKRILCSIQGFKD
Nature of the assay: Kinobeads competition binding: EPHA1. As to conditions: target EPHA1. The text has this:
Supplement 41589_2023_1459_MOESM4_ESM.xlsx, sheet "CATDS matrix" | column: EPHA1

For the next assay, the target named is T2, EPHB2 (Homo sapiens, UniProt P29323).
T2 construct: endogenous in cells
T2 sequence (P29323 19-1055): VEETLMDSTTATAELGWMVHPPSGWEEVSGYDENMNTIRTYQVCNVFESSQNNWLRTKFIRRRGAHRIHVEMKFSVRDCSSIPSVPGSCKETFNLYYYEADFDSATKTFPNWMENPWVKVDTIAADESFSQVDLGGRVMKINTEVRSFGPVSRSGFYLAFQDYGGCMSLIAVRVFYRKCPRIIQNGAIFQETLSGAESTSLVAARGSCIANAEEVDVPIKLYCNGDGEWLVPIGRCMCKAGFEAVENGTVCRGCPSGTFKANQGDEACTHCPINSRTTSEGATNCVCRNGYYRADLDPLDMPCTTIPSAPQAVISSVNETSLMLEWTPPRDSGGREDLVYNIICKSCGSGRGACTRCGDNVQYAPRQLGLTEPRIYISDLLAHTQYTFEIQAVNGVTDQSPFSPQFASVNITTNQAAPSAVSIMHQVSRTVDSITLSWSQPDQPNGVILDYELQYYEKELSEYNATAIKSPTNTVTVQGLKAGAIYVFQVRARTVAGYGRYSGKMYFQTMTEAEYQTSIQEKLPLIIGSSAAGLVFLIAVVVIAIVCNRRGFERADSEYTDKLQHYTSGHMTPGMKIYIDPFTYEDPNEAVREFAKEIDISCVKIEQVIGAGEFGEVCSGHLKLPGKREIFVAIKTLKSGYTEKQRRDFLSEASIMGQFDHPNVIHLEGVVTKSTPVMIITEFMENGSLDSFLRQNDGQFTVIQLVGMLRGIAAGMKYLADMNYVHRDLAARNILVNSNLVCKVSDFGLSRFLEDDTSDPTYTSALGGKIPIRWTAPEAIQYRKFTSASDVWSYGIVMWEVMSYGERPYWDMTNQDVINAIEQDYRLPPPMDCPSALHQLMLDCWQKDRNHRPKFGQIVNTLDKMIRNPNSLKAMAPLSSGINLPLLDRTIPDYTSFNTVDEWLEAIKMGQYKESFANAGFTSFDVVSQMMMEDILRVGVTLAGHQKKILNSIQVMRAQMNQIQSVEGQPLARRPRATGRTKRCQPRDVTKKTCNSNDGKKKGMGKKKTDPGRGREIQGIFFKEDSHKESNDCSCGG
Nature of the assay: Kinobeads competition binding: EPHB2.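 Also: target engagement share of this target among all targets at its Kdapp concentration.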 As to conditions: target EPHB2. The text has this:
Supplement 41589_2023_1459_MOESM4_ESM.xlsx, sheet "CATDS matrix" | column: EPHB2

The target of another assay is T3, ERN1 (Homo sapiens, UniProt O75460).
T3 construct: endogenous in cells
T3 sequence (O75460 19-977): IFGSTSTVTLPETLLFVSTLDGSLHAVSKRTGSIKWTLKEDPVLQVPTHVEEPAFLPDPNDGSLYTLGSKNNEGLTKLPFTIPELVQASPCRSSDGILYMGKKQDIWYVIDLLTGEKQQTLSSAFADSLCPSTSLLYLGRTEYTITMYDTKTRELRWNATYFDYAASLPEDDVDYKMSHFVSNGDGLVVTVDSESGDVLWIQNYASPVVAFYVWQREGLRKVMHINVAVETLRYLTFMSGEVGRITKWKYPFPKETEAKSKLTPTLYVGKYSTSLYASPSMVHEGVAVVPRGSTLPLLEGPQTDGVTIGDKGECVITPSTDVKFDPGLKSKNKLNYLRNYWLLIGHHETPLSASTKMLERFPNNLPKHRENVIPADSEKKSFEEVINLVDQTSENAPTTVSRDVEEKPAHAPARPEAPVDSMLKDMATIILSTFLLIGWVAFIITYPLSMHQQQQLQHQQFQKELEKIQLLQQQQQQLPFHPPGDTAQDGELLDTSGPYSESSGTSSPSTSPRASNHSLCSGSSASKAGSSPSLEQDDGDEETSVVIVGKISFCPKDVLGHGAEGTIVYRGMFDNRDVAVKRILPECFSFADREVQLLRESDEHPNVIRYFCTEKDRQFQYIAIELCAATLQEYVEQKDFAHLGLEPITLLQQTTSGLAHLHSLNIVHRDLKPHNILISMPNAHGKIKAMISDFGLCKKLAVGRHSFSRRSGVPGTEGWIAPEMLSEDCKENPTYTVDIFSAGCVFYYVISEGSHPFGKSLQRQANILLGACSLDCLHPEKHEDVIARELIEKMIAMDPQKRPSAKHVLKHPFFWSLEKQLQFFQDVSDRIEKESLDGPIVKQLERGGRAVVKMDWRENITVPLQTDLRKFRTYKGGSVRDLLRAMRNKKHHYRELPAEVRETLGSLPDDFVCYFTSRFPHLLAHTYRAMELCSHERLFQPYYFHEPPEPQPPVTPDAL
The experiment in a line: Kinobeads competition binding: ERN1. As to conditions: target ERN1. The text has this: Supplement 41589_2023_1459_MOESM4_ESM.xlsx, sheet "CATDS matrix" | column: ERN1

A further assay has as its system FLAD1. The experiment in a line: Kinobeads competition binding: FLAD1.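 Also: selectivity score: engagement of this protein divided by summed engagement of all targets.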 Further details: species or system human. To be noted: target FLAD1.
A further assay deals with GSPT1;GSPT2. The experiment in a line: Kinobeads competition binding: GSPT1;GSPT2. Further details: species or system human. As to conditions: target GSPT1;GSPT2.
A further assay has as its system LIMK1. The experiment in a line: Kinobeads competition binding: LIMK1. Further details: species or system human. To be noted: target LIMK1.
The target of another assay is T4, MAPK14 (Homo sapiens, UniProt Q16539).
T4 construct: endogenous in cells
T4 sequence (Q16539 whole entry): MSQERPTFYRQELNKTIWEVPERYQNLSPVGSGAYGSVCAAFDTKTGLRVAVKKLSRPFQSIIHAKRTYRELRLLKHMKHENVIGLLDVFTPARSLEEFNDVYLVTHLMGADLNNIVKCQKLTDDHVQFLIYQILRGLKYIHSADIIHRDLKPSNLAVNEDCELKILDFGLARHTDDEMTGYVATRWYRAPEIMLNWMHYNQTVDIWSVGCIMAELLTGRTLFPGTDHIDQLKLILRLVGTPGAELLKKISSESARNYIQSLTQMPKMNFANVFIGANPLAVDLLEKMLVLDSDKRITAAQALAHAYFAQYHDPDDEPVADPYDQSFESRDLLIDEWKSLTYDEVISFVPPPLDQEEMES
The experiment in a line: Kinobeads competition binding: MAPK14. As to conditions: target MAPK14.

In another assay the test system is MAPK8. The experiment in a line: Kinobeads competition binding: MAPK8. Further details: species or system human. As to conditions: target MAPK8.
A further assay relates to NAT10. The experiment in a line: Kinobeads competition binding: NAT10. Further details: species or system human. To be noted: target NAT10.
A further assay deals with T5, NTRK1 (Homo sapiens, UniProt P04629).
T5 construct: endogenous in cells
T5 sequence (P04629 33-796): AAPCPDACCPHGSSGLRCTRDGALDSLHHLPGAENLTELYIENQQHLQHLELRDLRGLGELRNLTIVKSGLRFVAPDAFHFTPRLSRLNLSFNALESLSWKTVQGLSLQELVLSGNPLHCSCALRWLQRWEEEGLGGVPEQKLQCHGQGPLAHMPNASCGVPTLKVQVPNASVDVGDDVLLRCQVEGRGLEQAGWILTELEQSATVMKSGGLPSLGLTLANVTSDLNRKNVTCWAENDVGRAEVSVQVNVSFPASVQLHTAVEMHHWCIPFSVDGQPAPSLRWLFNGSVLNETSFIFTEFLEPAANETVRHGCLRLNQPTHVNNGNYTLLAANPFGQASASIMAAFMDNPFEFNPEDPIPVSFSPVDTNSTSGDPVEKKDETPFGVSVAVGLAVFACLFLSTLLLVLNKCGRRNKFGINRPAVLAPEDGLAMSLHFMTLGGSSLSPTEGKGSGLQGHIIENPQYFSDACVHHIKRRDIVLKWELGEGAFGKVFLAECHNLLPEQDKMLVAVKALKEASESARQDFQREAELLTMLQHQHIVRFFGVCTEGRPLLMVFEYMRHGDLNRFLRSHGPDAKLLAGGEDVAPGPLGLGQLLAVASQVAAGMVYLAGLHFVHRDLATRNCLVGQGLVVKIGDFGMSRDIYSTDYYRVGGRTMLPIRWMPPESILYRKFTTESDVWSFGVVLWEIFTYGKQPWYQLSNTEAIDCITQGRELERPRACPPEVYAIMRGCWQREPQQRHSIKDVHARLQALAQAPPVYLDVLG
The experiment in a line: Kinobeads competition binding: NTRK1. To be noted: target NTRK1.

A further assay deals with T6, PKN2 (Homo sapiens, UniProt Q16513).
T6 construct: a mixture of lysates from five cancer cell lines; endogenous in cells
T6 sequence (Q16513 whole entry): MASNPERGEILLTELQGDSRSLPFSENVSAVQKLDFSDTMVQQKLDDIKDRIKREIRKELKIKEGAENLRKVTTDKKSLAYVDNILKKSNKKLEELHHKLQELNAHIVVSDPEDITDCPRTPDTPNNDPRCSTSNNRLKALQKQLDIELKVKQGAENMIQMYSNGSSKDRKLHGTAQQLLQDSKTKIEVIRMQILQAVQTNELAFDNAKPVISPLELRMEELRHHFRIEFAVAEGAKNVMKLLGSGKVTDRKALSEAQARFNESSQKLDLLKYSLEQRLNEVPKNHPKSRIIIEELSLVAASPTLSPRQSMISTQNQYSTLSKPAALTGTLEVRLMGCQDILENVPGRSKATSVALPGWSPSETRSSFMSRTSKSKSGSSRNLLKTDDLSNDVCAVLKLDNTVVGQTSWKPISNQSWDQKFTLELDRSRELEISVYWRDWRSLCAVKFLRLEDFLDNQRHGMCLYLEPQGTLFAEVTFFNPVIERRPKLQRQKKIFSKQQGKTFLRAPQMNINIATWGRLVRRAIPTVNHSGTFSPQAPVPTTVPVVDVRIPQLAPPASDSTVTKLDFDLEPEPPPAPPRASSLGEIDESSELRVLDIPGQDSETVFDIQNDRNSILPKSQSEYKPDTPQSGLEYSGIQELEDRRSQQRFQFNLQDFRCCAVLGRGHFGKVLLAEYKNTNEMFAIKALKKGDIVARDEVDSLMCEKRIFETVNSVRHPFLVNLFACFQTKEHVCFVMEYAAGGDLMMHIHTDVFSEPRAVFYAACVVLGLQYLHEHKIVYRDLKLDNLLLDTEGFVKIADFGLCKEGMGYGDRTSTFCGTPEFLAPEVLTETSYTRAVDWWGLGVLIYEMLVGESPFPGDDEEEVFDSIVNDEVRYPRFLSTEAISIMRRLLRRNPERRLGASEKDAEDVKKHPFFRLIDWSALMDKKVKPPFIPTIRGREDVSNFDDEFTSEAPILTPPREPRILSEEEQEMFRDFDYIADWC
Nature of the assay: Kinobeads competition binding: PKN2.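 Also: share of total target engagement due to this protein at one drug concentration.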 To be noted: target PKN2. The text has this:
Supplement 41589_2023_1459_MOESM4_ESM.xlsx, sheet "CATDS matrix" | column: PKN2

Structures are written as SMILES.

For `Nc1ncnc2[nH]c(-c3ccccc3)nc12` [AH5015_KCGS], the CATDS in the assay with ATR was 0; in the assay with BMPR1A, 0; in the assay on CDK12 it was 0; on EPHA1 it was 0; at EPHB2 it was 0.02863; at ERN1, 0. The CATDS in the assay on FLAD1, in the assay on GSPT1;GSPT2, with LIMK1, at MAPK14, in the assay on MAPK8 and in the assay with NAT10 was 0 throughout. Moreover, the CATDS at NTRK1 and at PKN2 was 0 each time.

Turning to `CCc1cc2c(cc1N1CCC(N3CCOCC3)CC1)C(C)(C)c1[nH]c3cc(C#N)ccc3c1C2=O` [Alectinib], the CATDS in the assay on ATR, with BMPR1A, with CDK12, on EPHA1, on EPHB2 and on ERN1 was 0 each time. In addition, the CATDS in the assay with FLAD1, with GSPT1;GSPT2, in the assay with LIMK1, at MAPK14, in the assay on MAPK8 and with NAT10 was 0 in each case. Moreover, the CATDS on NTRK1 and at PKN2 was 0 throughout.

Turning to `N#CC1(c2ccc(NC(=O)c3cccnc3NCc3ccncc3)cc2)CCCC1` [Apatinib], the CATDS with ATR, with BMPR1A, in the assay with CDK12, at EPHA1, on EPHB2 and on ERN1 was 0 each time. Moreover, the CATDS in the assay on FLAD1, in the assay with GSPT1;GSPT2, with LIMK1, on MAPK14, in the assay with MAPK8 and with NAT10 was 0 throughout. Also, the CATDS on NTRK1 and on PKN2 was 0 in each case.

As for `CCN1CCN(Cc2ccc(Nc3ncc(F)c(-c4cc(F)c5nc(C)n(C(C)C)c5c4)n3)nc2)CC1` [Abemaciclib], the CATDS with ATR, with BMPR1A, with CDK12, at EPHA1, at EPHB2 and at ERN1 was 0 each time. In addition, the CATDS in the assay on FLAD1, in the assay on GSPT1;GSPT2, in the assay on LIMK1, at MAPK14, in the assay on MAPK8 and in the assay with NAT10 was 0 each time. Further, the CATDS on NTRK1 and on PKN2 was 0 throughout.

As for `CN(C)C/C=C/C(=O)Nc1cc2c(Nc3ccc(F)c(Cl)c3)ncnc2cc1O[C@H]1CCOC1` [Afatinib], the CATDS in the assay with ATR, in the assay with CDK12, on EPHA1, on EPHB2, at ERN1 and in the assay on FLAD1 was 0 in each case. The CATDS in the assay with NAT10 and on PKN2 was 0 in each case.
